Measurements taken from patent US11918592B2, “Inhibitors of cyclin dependent kinase 7 (CDK7)” (Syros Pharmaceuticals, Inc., priority 2018, dated 2024).
Where two headings read alike, the source gives them in different places.

How the values were obtained:
[1] = biological target: CDK7/Cyclin H/MAT1 complex (Homo sapiens, UniProt P50613); assay: CDK7 kinase inhibition assay (Caliper/LabChip EZ Reader)
COV504 cells = assay: Inhibition of cell proliferation, CyQUANT Direct, COV504; assay type: cell-based; conditions: Homo sapiens; COV504 ovarian cancer cells, 72-hour; read-out: COV 504 proliferation calculated IC50
Experimental: (§1) HCC70 and MB453 cells are cell lines derived from human triple negative breast cancer. COV318 and COV504 cells are cell lines derived from human ovarian cancer. Representative compounds of the invention were tested at different concentrations (from 4 μM to 126.4 pM; 0.5 log serial dilutions) for their ability to inhibit the proliferation of each of these cell lines. Known CDK inhibitors dinaciclib or N-((1S,3R)-3-((5-chloro-4-(1H-indol-3-yl) pyrimidin-2-yl)amino)cyclohexyl)-5-((E)-4-(dimethylamino)but-2-enamido)picolinamide and triptolide were used as positive controls. Cells were seeded at approximately 2,000 cells/well and grown in ATCC-formulated RPMI-1640 Medium (ATCC 30-2001)+10% FBS. The cells were cultured at 37° C. in a humidified chamber in the presence of 5% CO2. Proliferation assays were conducted over a 72-hour time period. CyQUANT® Direct Cell Proliferation Assay (Life Technologies, Chicago, IL USA) was used to assess the anti-proliferative effects of the compounds following manufacturer's directions and utilizing the reagents supplied with the CyQUANT® Direct Cell kit.

HCC70 cells = assay: Inhibition of cell proliferation, CyQUANT Direct, HCC70; assay type: cell-based, human; conditions: Homo sapiens, read-out: HCC 70 proliferation calculated IC50
Experimental: as §1

CDK9/Cyclin T1 complex = CDK9/Cyclin T1 complex (Homo sapiens, UniProt P50750); assay: CDK9 kinase inhibition assay (Caliper/LabChip EZ Reader)
CDK9/Cyclin T1 complex, sequence (P50750 whole entry, the tested form may be a part): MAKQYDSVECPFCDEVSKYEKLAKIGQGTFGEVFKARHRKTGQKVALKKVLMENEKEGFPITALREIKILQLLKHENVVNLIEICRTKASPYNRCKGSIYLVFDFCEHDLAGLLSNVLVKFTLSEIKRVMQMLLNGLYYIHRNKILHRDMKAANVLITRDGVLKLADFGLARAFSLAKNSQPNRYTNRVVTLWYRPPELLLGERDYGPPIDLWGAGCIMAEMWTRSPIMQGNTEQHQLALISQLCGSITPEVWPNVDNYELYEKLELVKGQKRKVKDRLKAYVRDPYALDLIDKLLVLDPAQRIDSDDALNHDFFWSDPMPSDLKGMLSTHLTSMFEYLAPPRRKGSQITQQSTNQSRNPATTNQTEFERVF
CDK9/Cyclin T1 complex, sequence (O60563 whole entry partner, the tested form may be a part): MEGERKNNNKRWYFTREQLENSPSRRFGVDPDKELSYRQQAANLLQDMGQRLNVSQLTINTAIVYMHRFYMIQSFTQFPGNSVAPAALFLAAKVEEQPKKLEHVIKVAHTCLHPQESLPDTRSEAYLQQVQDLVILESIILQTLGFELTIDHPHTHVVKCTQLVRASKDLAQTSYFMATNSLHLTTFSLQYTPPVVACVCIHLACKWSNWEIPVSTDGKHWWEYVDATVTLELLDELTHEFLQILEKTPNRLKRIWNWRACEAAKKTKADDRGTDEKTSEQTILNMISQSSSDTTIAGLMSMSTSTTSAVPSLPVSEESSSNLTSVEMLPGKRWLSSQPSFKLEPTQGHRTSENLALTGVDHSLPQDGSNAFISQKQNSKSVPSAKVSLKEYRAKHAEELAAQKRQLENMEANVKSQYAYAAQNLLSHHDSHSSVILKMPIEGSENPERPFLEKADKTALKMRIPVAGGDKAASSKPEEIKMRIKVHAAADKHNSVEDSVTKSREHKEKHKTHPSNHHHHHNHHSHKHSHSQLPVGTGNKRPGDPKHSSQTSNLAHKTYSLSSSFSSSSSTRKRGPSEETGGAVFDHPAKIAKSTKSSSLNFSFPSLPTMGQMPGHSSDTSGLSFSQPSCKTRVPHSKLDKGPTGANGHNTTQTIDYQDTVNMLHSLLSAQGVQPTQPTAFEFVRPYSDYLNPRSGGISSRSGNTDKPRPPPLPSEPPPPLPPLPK
Experimental: (§2) Compounds of the invention were assayed for inhibition of CDK7, CDK9, CDK12, and CDK2 activity at Biortus Biosciences (Jiangyin, Jiangsu Province, P.R. of China) using kinase assays for each CDK developed with a Caliper/LabChip EZ Reader (Perkin Elmer, Waltham, MA).
(§3) Furthermore, the CDK9 inhibition assay used CDK9/Cyclin T1 complex (8 nM) and “5-FAM-CDK9tide” peptide substrate (2 μM, synthesized fluorophore-labeled peptide with the following sequence: 5-FAM-GSRTPMY-NH2 (SEQ ID NO:2) where 5-FAM is defined above and NH2 signifies a C-terminal amide) with 10 mM MgCl2 in the buffer composition listed above. The CDK12 inhibition assay used CDK12 (aa686-1082)/Cyclin K complex (50 nM) and “5-FAM-CDK9tide” (2 μM) as defined above, with 2 mM MgCl2 in the buffer composition above. Additionally, the CDK2 inhibition assay used CDK2/Cyclin E1 complex (0.5 nM) and “5-FAM-CDK7tide” (2 μM) as defined above, with 2 mM MgCl2 in the buffer composition listed above.
(§4) The incubation period at 27° C. for each CDK inhibition assay was chosen such that the fraction of phosphorylated peptide product produced in each assay, relative to the total peptide concentration, was approximately 20% (±5%) for the uninhibited kinase (35 min. for CDK7, 35 min. for CDK2, 3 hr. for CDK12, 15 min. for CDK9).

[2] = biological target: CDK12 (aa686-1082)/Cyclin K complex (Homo sapiens, UniProt Q9NYV4); assay: CDK12 kinase inhibition assay (Caliper/LabChip EZ Reader)
CDK12 (aa686-1082)/Cyclin K complex, sequence (Q9NYV4 686-1082): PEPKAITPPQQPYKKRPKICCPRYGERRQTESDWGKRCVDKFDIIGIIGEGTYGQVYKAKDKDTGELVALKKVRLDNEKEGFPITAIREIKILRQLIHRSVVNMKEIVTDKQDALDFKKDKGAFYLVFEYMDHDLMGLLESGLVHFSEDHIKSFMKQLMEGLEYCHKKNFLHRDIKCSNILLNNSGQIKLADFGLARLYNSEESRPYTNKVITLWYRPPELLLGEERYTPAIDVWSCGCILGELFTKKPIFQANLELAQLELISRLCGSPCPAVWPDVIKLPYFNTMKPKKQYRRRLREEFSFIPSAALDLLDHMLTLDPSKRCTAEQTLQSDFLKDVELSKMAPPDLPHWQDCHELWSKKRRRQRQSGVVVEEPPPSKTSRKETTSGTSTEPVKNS
CDK12 (aa686-1082)/Cyclin K complex, sequence (O75909 whole entry partner, the tested form may be a part): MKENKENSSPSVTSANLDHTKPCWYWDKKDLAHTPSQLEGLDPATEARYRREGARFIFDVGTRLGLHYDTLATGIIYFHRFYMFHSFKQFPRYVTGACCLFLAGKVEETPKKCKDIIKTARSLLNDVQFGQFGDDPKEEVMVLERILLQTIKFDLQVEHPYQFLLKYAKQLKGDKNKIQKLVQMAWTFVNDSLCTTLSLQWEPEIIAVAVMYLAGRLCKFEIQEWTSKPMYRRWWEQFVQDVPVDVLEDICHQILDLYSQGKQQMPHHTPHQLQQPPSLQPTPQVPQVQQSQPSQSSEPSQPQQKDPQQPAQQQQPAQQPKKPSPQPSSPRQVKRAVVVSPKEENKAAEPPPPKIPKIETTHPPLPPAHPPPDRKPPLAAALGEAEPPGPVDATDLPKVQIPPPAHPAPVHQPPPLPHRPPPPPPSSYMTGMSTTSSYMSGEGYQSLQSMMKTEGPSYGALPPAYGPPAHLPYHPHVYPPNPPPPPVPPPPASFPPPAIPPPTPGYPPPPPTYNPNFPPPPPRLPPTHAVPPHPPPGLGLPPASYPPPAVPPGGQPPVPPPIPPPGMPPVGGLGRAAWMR
Experimental: as §2, §3, §4

COV318 cells = assay: Inhibition of cell proliferation, CyQUANT Direct, COV318; assay type: cell-based; conditions: Homo sapiens; COV318 ovarian cancer cells, 72-hour; read-out: COV 318 proliferation calculated IC50
Experimental: as §1

MB453 cells = assay: Inhibition of cell proliferation, CyQUANT Direct, MB453; assay type: cell-based, human; conditions: Homo sapiens, read-out: MB 453 proliferation calculated IC50
Experimental: as §1

CDK2/Cyclin E1 complex = CDK2/Cyclin E1 complex (Homo sapiens, UniProt P24941); assay: CDK2 kinase inhibition assay (Caliper/LabChip EZ Reader)
Experimental: as §2, §3, §4

[3] = HCC70 triple negative breast cancer cells, 72-hour
[4] = MB453 triple negative breast cancer cells, 72-hour

CDK7/Cyclin H/MAT1 complex, sequence (P50613 whole entry): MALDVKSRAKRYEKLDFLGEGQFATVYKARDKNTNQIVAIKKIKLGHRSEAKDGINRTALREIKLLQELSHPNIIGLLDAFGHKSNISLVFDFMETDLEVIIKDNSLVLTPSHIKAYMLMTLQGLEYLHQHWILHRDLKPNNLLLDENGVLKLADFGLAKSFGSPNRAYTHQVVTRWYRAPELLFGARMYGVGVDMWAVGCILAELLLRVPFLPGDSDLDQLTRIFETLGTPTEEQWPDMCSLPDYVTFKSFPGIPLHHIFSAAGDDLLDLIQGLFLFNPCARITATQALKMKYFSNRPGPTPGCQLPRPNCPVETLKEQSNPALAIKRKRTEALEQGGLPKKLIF
CDK7/Cyclin H/MAT1 complex, sequence (P51946 whole entry partner): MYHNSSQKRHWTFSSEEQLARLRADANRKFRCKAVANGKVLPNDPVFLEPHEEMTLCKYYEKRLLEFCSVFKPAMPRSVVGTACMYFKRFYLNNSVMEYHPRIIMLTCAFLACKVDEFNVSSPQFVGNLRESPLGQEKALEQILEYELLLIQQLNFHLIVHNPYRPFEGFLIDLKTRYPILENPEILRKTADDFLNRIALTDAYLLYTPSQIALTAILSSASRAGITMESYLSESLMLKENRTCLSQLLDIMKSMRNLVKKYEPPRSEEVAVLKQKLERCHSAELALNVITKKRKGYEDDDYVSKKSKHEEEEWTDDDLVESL
CDK7/Cyclin H/MAT1 complex, sequence (P51948 whole entry partner): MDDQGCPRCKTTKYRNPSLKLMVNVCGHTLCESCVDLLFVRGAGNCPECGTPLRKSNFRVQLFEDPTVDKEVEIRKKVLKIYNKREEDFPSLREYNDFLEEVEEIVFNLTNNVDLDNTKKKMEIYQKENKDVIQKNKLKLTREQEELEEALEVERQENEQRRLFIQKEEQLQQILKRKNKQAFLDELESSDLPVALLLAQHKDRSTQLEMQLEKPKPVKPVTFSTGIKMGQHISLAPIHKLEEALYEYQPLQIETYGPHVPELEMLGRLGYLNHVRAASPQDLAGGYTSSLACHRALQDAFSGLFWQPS

SMILES | IC50 [1] | IC50 (COV504 cells) | IC50 (HCC70 cells; HCC70, 72 h) | IC50 (CDK9/Cyclin T1 complex) | IC50 [2] | IC50 (COV318 cells) | IC50 (MB453 cells; 72 h) | IC50 (CDK2/Cyclin E1 complex) | IC50 (HCC70 cells; [3]) | IC50 (MB453 cells; [4])
CCN[C@H]1CCC[C@@H]1Nc1ncc(C(F)(F)F)c(-c2c[nH]c3nc(-c4c(C)noc4C)ccc23)n1 [Compound 145, (1S, 2S)—N1-[4-[6-(3,5-dimethylisoxazol-4-yl)-1H-pyrrolo [2,3-b]pyridin-3-yl]-5-(trifluoromethyl)pyrimidin-2-yl]-N2-ethyl-cyclopentane-1,2-diamine] | < 30 nM | < 100 nM | < 100 nM | > 500 nM | > 500 nM | < 100 nM | < 100 nM | > 500 nM | – | –
Cc1noc(C)c1-c1ccc2c(-c3nc(N[C@@H]4C[C@@H]5CC[C@H]4N5)ncc3C(F)(F)F)c[nH]c2n1 [Compound 140] | < 30 nM | < 100 nM | – | > 500 nM | > 500 nM | < 100 nM | – | > 500 nM | < 100 nM | < 100 nM
Cc1noc(C)c1-c1ccc2c(-c3nc(N[C@H]4C[C@H]5CC[C@@H]4N5)ncc3C(F)(F)F)c[nH]c2n1 [Compound 139] | < 30 nM | 100 to 500 nM | – | > 500 nM | > 500 nM | 500 to 2000 nM | – | > 500 nM | 100 to 500 nM | 100 to 500 nM
Cc1noc(C)c1-c1ccc2c(-c3nc(N[C@H]4CCCC4N4CCCC4)ncc3C(F)(F)F)c[nH]c2n1 (stereo partly drawn) [Compound 144, 4-[6-(3,5-dimethylisoxazol-4-yl)-1H-pyrrolo[2,3-b]pyridin-3-yl]-N-[(1S)-2-pyrrolidin-1-ylcyclopentyl]-5-(trifluoromethyl) pyrimidin-2-amine] | < 30 nM | < 100 nM | – | > 500 nM | > 500 nM | < 100 nM | – | > 500 nM | 100 to 500 nM | < 100 nM
N#Cc1ccc2c(-c3nc(N[C@@H]4C[C@@H]5CCC4N5)ncc3C(F)(F)F)c[nH]c2c1 (racemic) [Compound 106, 3-(2-[[(+/−)-exo-7-azabicyclo[2.2.1]heptan-2-yl]amino]-5-(trifluoromethyl)pyrimidin-4-yl)-1H-indole-6-carbonitrile] | < 30 nM | 100 to 500 nM | – | > 500 nM | > 500 nM | 100 to 500 nM | – | > 500 nM | 100 to 500 nM | 100 to 500 nM
N#Cc1ccc2c(-c3nc(N[C@@H]4C[C@@H]5CC[C@H]4N5)ncc3C(F)(F)F)c[nH]c2c1 [Compound 115, 3-[2-[[(1R,2R,4S)-7-azabicyclo[2.2.1]heptan-3-yl]amino]-5-(trifluoromethyl)pyrimidin-4-yl]-1H-indole-6-carbonitrile] | 30 to 100 nM | 100 to 500 nM | – | > 500 nM | > 500 nM | 500 to 2000 nM | – | > 500 nM | 500 to 2000 nM | 100 to 500 nM
CC(C)N1CC[C@H](Nc2ncc(C(F)(F)F)c(-c3c[nH]c4cc(C#N)ccc34)n2)C1 [Compound 105] | > 500 nM | > 2000 nM | – | > 500 nM | > 500 nM | > 2000 nM | – | > 500 nM | > 2000 nM | > 2000 nM
COC1CN([C@@H]2CCC[C@@H]2Nc2ncc(C(F)(F)F)c(-c3c[nH]c4nc(-c5c(C)noc5C)ccc34)n2)C1 [Compound 165, 4-[6-(3,5-dimethylisoxazol-4-yl)-1H-pyrrolo[2,3-b]pyridin-3-yl]-N-[(1S,2R)-2-(3-methoxyazetidin-1-yl)cyclopentyl]-5-(trifluoromethyl)pyrimidin-2-amine] | 30 to 100 nM | > 2000 nM | – | > 500 nM | > 500 nM | > 2000 nM | – | > 500 nM | > 2000 nM | 500 to 2000 nM
N#Cc1ccc2c(-c3nc(N[C@@H]4CNC[C@@H]4O)ncc3C(F)(F)F)c[nH]c2c1 (relative stereo) [Compound 107] | 100 to 500 nM | > 2000 nM | – | > 500 nM | > 500 nM | > 2000 nM | – | > 500 nM | > 2000 nM | > 2000 nM
Cc1noc(C)c1-c1ccc2c(-c3nc(N[C@H]4CCC[C@@H]4N4CC[C@@H](F)C4)ncc3C(F)(F)F)c[nH]c2n1 [Compound 148, 4-[6-(3,5-dimethylisoxazol-4-yl)-1H-pyrrolo[2,3-b]pyridin-3-yl]-N-[(1S,2S)-2-[(3R)-3-fluoropyrrolidin-1-yl]cyclopentyl]-5-(trifluoromethyl)pyrimidin-2-amine] | < 30 nM | < 100 nM | – | > 500 nM | > 500 nM | > 2000 nM | – | > 500 nM | 100 to 500 nM | 100 to 500 nM
N#Cc1ccc2c(-c3nc(N[C@@H]4CNC[C@H]4F)ncc3C(F)(F)F)c[nH]c2c1 (relative stereo) [Compound 110] | 100 to 500 nM | 500 to 2000 nM | – | > 500 nM | > 500 nM | > 2000 nM | – | > 500 nM | 500 to 2000 nM | > 2000 nM
N[C@H]1CCC[C@@H]1Nc1ncc(C(F)(F)F)c(-c2c[nH]c3cc(-c4nccs4)ccc23)n1 [Compound 117, (1S,2S)—N1-[4-(6-thiazol-2-yl-1H-indol-3-yl)-5-(trifluoromethyl)pyrimidin-2-yl]-cyclopentane-1,2-diamine] | < 30 nM | 100 to 500 nM | – | > 500 nM | > 500 nM | > 2000 nM | – | > 500 nM | 100 to 500 nM | 100 to 500 nM
N#Cc1ccc2c(-c3nc(N[C@@H]4CC[C@H]4N4CCOCC4)ncc3C(F)(F)F)c[nH]c2c1 [Compound 132] | > 500 nM | > 2000 nM | – | > 500 nM | > 500 nM | > 2000 nM | – | > 500 nM | > 2000 nM | > 2000 nM
Cc1noc(C)c1-c1ccc2c(-c3nc(N[C@H]4CCC[C@H]4N4CC(F)(F)C4)ncc3C(F)(F)F)c[nH]c2n1 [Compound 167, N-[(1S,2R)-2-(3,3-difluoroazetidin-1-yl)cyclopentyl]-4-[6-(3,5-dimethylisoxazol-4-yl)-1H-pyrrolo[2,3-b]pyridin-3-yl]-5-(trifluoromethyl)pyrimidin-2-amine] | > 500 nM | > 2000 nM | – | > 500 nM | > 500 nM | > 2000 nM | – | > 500 nM | > 2000 nM | > 2000 nM
N#Cc1ccc2c(-c3nc(N[C@H]4CC[C@@H]4N)ncc3C(F)(F)F)c[nH]c2c1 [Compound 103] | < 30 nM | 100 to 500 nM | – | > 500 nM | > 500 nM | 100 to 500 nM | – | > 500 nM | 100 to 500 nM | 100 to 500 nM
COCCN[C@H]1CCC[C@@H]1Nc1ncc(C(F)(F)F)c(-c2c[nH]c3cc(C#N)ccc23)n1 [Compound 123, 3-[2-[[(1S,2S)-2-(2-methoxyethylamino)cyclopentyl]-amino]-5-(trifluoromethyl)pyrimidin-4-yl]-1H-indole-6-carbonitrile] | < 30 nM | 100 to 500 nM | – | > 500 nM | > 500 nM | 100 to 500 nM | – | > 500 nM | 100 to 500 nM | 100 to 500 nM
